Consider four molecules from patent publication US5420343A, “Derivatives of aromatic cyclic alkylethers” (G. D. Searle & Co., priority 1994, dated 1995).

The target in one data set is T1, human COX-I (Homo sapiens, UniProt P23219).
T1 construct: made in house; host or cells: SF9 insect cells, recombinant baculovirus (pVL1393); coding fragment from Caymen Chemical, Ann Arbor, Mich
Nature of the data set: Human Enzyme Assay, COX-I (recombinant enzyme, PGE2 ELISA). The class given is biochemical. Particulars: 10 μM arachidonic acid, 10-20 min pre-incubation. As to the method: (§1) The compounds of the invention are evaluated with respect to COX-I and COX-II activity in vitro using an enzyme based assay according to the following assay procedure.
(§2) A 2.0 kb fragment containing the coding region for either human or murine COX-I (Caymen Chemical, Ann Arbor, Mich.), or human or murine COX-II (Caymen Chemical, Ann Arbor, Mich.), was cloned into a BamH1 site of the baculovirus transfer vector pVL1393 (Invitrogen, Palo Alto, Calif.) to generate a baculovirus transfer vector. Recombinant baculoviruses were isolated by transfecting 4 μg of baculovirus transfer vector DNA into SF9 cells (2×10e8) (Invitrogen, Palo Alto, Calif.) along with 200 ng of linearized bacium by the phosphate method. See M. D. Summers et al., "A Manual of Methods for Baculovirus Vectors and Insect Cell Culture Procedure," TEXAS AGRICULTURE EXPERIMENTAL STATION BULLETIN, No. 1555 (1987), which is incorporated herein by reference. Recombinant viruses were purified by three rounds of plaque purification, and high titer (10e7-10e8 pfu/ml) stocks of virus were prepared. […]
(§3) COX activity was assayed as PGE2 formed/μg protein/time using an ELISA (Caymen Chemical, Ann Arbor, Mich.) to detect the prostaglandin E2 released. […] The PGE2 formed was measured by standard ELISA technology (Cayman Chemical, Ann Arbor, Mich.). […]
In general terms: ELISA stands for enzyme-linked immunosorbent assay.

For another data set, the target named is T2, human COX-II (Homo sapiens, UniProt P35354).
T2 construct: made in house; host or cells: SF9 insect cells, recombinant baculovirus (pVL1393); coding fragment from Caymen Chemical, Ann Arbor, Mich
T2 sequence (P35354 18-604): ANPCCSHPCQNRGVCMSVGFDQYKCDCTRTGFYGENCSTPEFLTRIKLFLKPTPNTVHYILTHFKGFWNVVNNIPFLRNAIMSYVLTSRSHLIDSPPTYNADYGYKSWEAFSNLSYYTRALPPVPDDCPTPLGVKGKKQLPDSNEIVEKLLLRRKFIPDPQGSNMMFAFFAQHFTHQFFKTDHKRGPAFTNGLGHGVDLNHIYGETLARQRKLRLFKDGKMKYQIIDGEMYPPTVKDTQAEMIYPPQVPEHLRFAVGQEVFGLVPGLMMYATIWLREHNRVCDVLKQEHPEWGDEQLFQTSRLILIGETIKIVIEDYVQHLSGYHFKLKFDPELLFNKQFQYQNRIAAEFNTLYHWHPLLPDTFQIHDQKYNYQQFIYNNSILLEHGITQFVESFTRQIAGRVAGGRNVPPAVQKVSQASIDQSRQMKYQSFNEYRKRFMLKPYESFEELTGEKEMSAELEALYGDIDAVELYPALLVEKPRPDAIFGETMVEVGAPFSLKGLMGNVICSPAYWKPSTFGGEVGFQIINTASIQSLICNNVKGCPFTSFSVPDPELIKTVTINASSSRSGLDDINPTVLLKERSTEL
Briefly: Human Enzyme Assay, COX-II (recombinant enzyme, PGE2 ELISA). The following applies: 10 μM arachidonic acid, 10-20 min pre-incubation. The class given is biochemical. As to the method:
as §1, §2, §3

The target in the next data set is T3, cellular COX-II (Homo sapiens, UniProt P35354).
T3 construct: stimulated human fetal dermal fibroblasts (HFDF, derived from primary cell cultures); endogenous in cells; host or cells: human fetal dermal fibroblasts (HFDF), primary culture, stimulated overnight with IL-1 beta
T3 sequence (P35354 18-604): T2 sequence (P35354 18-604)
Nature of the data set: Cellular COX-II Assay (Cell Fibroblast Assay). Particulars: IL-1 beta stimulated human fetal dermal fibroblasts; 20 μM arachidonic acid; PGE2 by ELISA. The class given is cell-based. As to the method:
The results for this assay, as well as for the next assay (COX-II Cell Fibroblast Assay) are expressed in terms of COX-I or II activity as an IC50 value (50% inhibitory concentration), as defined as the amount of prostaglandin E2 (PGE2) formed per protein per time in response to the enzyme substrate arachidonic acid.
The compounds of the invention are evaluated with respect to the inhibition of cellular COX-II in vitro according to the following Cellular COX-II Assay (Cell Fibroblast Assay).
Inhibition of cellular COX-II by test compounds is determined using stimulated human fetal dermal fibroblasts (HFDF, derived from primary cell cultures). […] Supernatants are collected and Prostaglandin E2 (PGE2) production is measured by an enzyme-linked immunosorbent assay (ELISA; antibodies produced by Cayman Chemical Company, Ann Arbor, Mich.). […]
The procedure uses information for indomethacin and the rest of the plate in defining the minimum and maximum response. […] For the other compounds, if a response is measured which is less than the response for the unstimulated wells, then this response may be considered to be another estimate of a minimal response. […]

The next data set relates to COX II enzyme. The following applies: E. Meade et al., J. Biol. Chem. 268, 6610 (1993); cited from earlier work.
The conditions of data set [1]: Futaki et al., Gen. Pharmac. 24, 105 (1993); cited from earlier work.
The conditions of data set [2]: Futaki et al., Gen. Pharmac. 24, 105 (1993); cited from earlier work. The source holds these as a separate data set.

pIC50: −log10 of the molar value.

T1 sequence (P23219 24-599): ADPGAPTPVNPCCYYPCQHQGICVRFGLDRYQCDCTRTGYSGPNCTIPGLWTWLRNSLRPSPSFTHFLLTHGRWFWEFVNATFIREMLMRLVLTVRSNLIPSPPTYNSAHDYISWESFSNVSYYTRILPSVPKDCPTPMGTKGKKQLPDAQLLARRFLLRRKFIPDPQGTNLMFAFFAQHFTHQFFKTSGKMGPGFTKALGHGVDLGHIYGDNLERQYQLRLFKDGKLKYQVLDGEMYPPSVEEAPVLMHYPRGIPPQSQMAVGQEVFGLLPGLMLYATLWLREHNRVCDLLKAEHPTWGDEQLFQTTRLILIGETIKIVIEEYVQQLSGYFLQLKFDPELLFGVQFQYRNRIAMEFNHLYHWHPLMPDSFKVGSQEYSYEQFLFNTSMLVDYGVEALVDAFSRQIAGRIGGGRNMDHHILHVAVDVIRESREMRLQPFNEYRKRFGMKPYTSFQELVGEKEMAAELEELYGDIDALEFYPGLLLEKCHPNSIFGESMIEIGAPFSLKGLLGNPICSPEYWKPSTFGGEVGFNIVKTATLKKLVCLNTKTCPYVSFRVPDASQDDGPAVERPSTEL

For `CC(C)(C)c1cc(C[C@H]2CCC[C@H]2OCC(=O)O)cc(C(C)(C)C)c1` (relative stereo) [Example 7, (cis)-2-[[2-[3,5-bis(1,1-dimethylethyl) -phenylmethyl]cyclopentyl]oxy]-acetic acid], the results for the pIC50 at human COX-I and at human COX-II were less than 4.00 and 5.87, respectively.

Take `CC(C)(C)c1cc(C[C@@H]2CCC[C@H]2OCC(=O)O)cc(C(C)(C)C)c1` (relative stereo) [Example 8, (trans)-2-[[2-[3,5-bis(1,1-dimethylethyl) -phenylmethyl]cyclopentyl]oxy]acetic acid]: the pIC50 (in general, −log10 of the IC50, conventionally taken in molar units) against cellular COX-II was 8.70; at human COX-I, less than 4.00; at human COX-II it was less than 4.00.

As for `COc1ccc2cc(CC(=O)O)ccc2c1` [6-methoxy-2-napthylacetic acid], the “selective inhibition of COX II enzyme” value in the data set with COX II enzyme is listed as “selectively inhibit the COX II enzyme”.

Turning to `CS(=O)(=O)Nc1ccc([N+](=O)[O-])cc1OC1CCCCC1` [N-(2-cyclohexyloxy-4-nitrophenyl)methanesulfonamide], the anti-inflammatory activity result in data set [1] is recorded as “anti-inflammatory”. In data set [2], the gastric side effects entry is reported as “lacks gastric side effects”.
